Reference: patent US20140243422A1, “METHODS OF TREATING BEHAVIORAL AND PSYCHIATRIC DISORDERS” (ELAN PHARMACEUTICALS, INC., priority 2011, published 2014)

Assays:
[1] = system: patients with mild to moderate AD (MMSE 16-26); experiment: Phase 2 placebo-controlled trial: cognitive and functional outcome measures (NTB, ADCS-ADL, CDR-SB); assay type: in vivo, human
Method: (§1) In a Phase 2, parallel arm, dose-ranging, placebo-controlled, double-blind, multicenter trial in patients with mild to moderate AD (MMSE 16-26), scyllo-inositol was administered to study subjects in immediate release tablets twice daily at the dosage level set for each study arm or identical-appearing placebo tablets were administered in the control arm. […] The study included neuropsychological assessments using the NPI-12 item scale, as well as assessments of scyllo-Inositol (SI) and myo-inositol (MI) brain levels using magnetic resonance spectroscopy (MRS).
Study drug was administered as placebo or one of 3 doses of scyllo-inositol (SI): 250 mg, 1000 mg and 2000 mg, each dose given twice daily (bid) as capsules of either 250 mg or 1000 mg.
(§2) The present study was a dose ranging study in Mild and Moderate AD patients (defined as having MMSE scores of 16-26 inclusive), and included 3 doses of scyllo-insoitol given bid (250 mg, 1000 mg, and 2000 mg) and placebo. The study was of 78 weeks duration and enrolled a total of 353 patients, and 351 received study drug (safety population). Due to safety findings in the 2 highest dose groups, these 2 groups were discontinued and the study's final efficacy analysis was based only on the 250 mg and placebo groups. The primary efficacy analysis was based on the overall population (mild and moderate), but the statistical analysis plan (SAP) Included subgroup analyses by disease severity, and defined Mild as patients with MMSE 23-26 and Moderate 16-22 inclusive. In the overall study population, total randomized to all 4 dose groups=353, total that received study drug=351 (safety population, at any dose). For placebo and 250 mg group, the overall m-ITT (modified intent-to-treat)=166, overall PPS (per protocol set)=96.
Values for all clinical outcome measures were calculated so that a positive change from baseline indicates improvement, and a positive difference from placebo indicates drug benefit.
A sensitivity analysis was performed post-hoc using a wider definition of the Mild sub-group (MMSE: 22-26 inclusive) with a larger sample size. In this sensitivity analysis, the positive effect of the 250 mg on the NTB score approached a significant trend (p<0.1) in the m-ITT analysis (Table 3), and was significant (p<0.05) in the PP analysis (data on file). […] On this basis, all further analyses shown here are defined in the Mild and Moderate subgroups as patients having MMSE scores between 22-26 (Mild) and 16-21 (Moderate) inclusive.

[2] = system: myo-inositol brain levels; experiment: Phase 2 trial: brain myo-inositol and scyllo-inositol levels by magnetic resonance spectroscopy (MRS); assay type: in vivo, human
Method: as §1
The maximal myo-inositol reduction measured at the 3 studied doses was 44%, 66% and 60% at the 250 mg, 1000 mg, and 2000 mg bid doses, respectively.

[3] = system: patients with mild to moderate AD (MMSE 16-26); experiment: Phase 2 trial: safety and tolerability; assay type: in vivo, human; details: 250 mg bid, elderly study population
Method: as §2
In summary, scyllo-inositol exposures ≧1000 mg bid provide less cognitive and functional benefit than the 250 mg bid dose. These high exposures may be associated with an increase in neuropsychiatric adverse events.

amyloid β-peptide = details: given orally, transgenic mouse model of AD; cited from earlier work
myo-inositol = details: transgenic mice, Choi et al. 2010; cited from earlier work
[4] = 250 mg bid, Mild MMSE 22-26 (post-hoc), m-ITT
[5] = 250 mg bid, Mild MMSE 22-26, m-ITT
[6] = 250 mg bid, Mild MMSE 23-26, PPS
[7] = 250 mg bid, Mild MMSE 23-26, m-ITT
[8] = 250 mg bid, Mild MMSE 23-26, m-ITT, week 78, positive = drug benefit

O[C@H]1[C@H](O)[C@@H](O)[C@H](O)[C@@H](O)[C@@H]1O [scyllo-inositol]
ADCS-DL drug-placebo difference [1, 4]: 3.15
CDR-SB drug-placebo difference [1, 4]: 0.97
NTB drug-placebo difference [1, 4]: 0.2
ADCS-DL % effect compared to placebo [1, 5]: 42%
CDR-SB % effect compared to placebo [1, 5]: 42%
NTB % effect compared to placebo [1, 5]: 75%
ADCS-ADL % effect compared to placebo [1, 6]: 31%
ADCS-ADL drug-placebo difference [1, 6]: 2.25
CDR-SB % effect compared to placebo [1, 6]: 44%
CDR-SB drug-placebo difference [1, 6]: 0.95
NTB % effect compared to placebo [1, 6]: 100%
NTB drug-placebo difference [1, 6]: 0.4
ADCS-ADL % effect compared to placebo [1, 7]: 35%
CDR-SB % effect compared to placebo [1, 7]: 40%
NTB % effect compared to placebo [1, 7]: 72%
ADCS-ADL drug-placebo difference [1, 8]: 2.26
CDR-SB drug-placebo difference [1, 8]: 0.87
NTB drug-placebo difference [1, 8]: 0.2
magnitude of the 250 mg effect on the NTB ([1]; 250 mg bid, overall mild and moderate population, per protocol subjects, week 78, not statistically significant): 0.15
NTB benefit compared to placebo ([1]; 250 mg bid, overall population, per protocol subjects, week 78): 40%
benefit on co-primary cognitive and functional endpoints (NTB and ADCS-ADL) ([1]; overall Mild and Moderate population): no statistically significant benefit
maximal myo-inositol reduction in brain (MRS) ([2]; 250 mg bid, maximal at about 48 to about 78 weeks): 44%
maximal myo-inositol reduction in brain (MRS) ([2]; 1000 mg bid): 66%
maximal decrease of myo-inositol levels ([2]; 1000 mg bid and 2000 mg bid): 60-66%
maximal myo-inositol reduction in brain (MRS) ([2]; 2000 mg bid): 60%
brain scyllo-inositol level by MRS ([2]; 250, 1000, 2000 mg bid): dose-dependent increase
safety and CNS tolerability [3]: acceptable safety and good CNS tolerability
aggregation of amyloid β-peptide in the brain (amyloid β-peptide): inhibits aggregation of amyloid β-peptide in the brain
myo-inositol reductions in frontal cortex and hippocampus (MRS) (myo-inositol): rather modest non significant myo-inositol reductions
